Reference: patent US7189753B1, “Preemptive prophylaxis of migraine” (priority 1997, dated 2007)

Test system: onset of the headache phase of migraine
Test: Open label pilot study of oral naratriptan 2.5 mg taken as a single dose during prodrome
Type: in vivo, human
Protocol: An open label pilot study was conducted to determine whether oral naratriptan 2.5 mg taken as a single dose during the prodrome could prevent the onset of the headache phase of migraine. […] Twenty patients recruited at 4 study sites were administered oral naratriptan 2.5 mg after onset of prodrome symptoms for a total of 63 prodromes. […] The pain severity of headaches that were not prevented were reduced as compared to baseline pain severity of migraine attacks not treated with naratriptan. An additional 13 patients recruited at a fifth site were also treated. […] Upon review, all 13 patients reported onset of headache within 3 hours after administration of naratriptan. Eighty-seven percent of prodromes in this patient group were treated ≦2 hours before onset of headache.

CNS(=O)(=O)CCc1ccc2[nH]cc(C3CCN(C)CC3)c2c1.Cl [naratriptan, N-methyl-3-(1-methyl-4-piperidinyl)-1H-indole-5-ethanesulfonamide monohydrochloride]
headaches not prevented that occurred ≦2 hours after treatment (4 sites, 15 of the 25 headaches): 60% | pain severity of headaches that were not prevented, compared to baseline pain severity of attacks not treated with naratriptan (4 study sites, oral 2.5 mg): reduced | treated prodromes that did not progress to headache (20 patients at 4 study sites, 63 prodromes, oral 2.5 mg after onset of prodrome symptoms): Sixty | patients reporting headache following treatment (additional 13 patients at a fifth site): All 13 patients reported headache following each treatment | prodromes treated ≦2 hours before onset of headache (fifth site, 13 patients): Eighty-seven | onset of headache after administration (fifth site, all 13 patients): ≤ 3 h | preventing the onset of the headache phase of migraine (oral 2.5 mg single dose during prodrome, open label): effective in preventing the onset of the headache phase of migraine
